Laboratory results published in ChEMBL document CHEMBL1151570, “Preparation and Properties of a fibrinogen receptor antagonist containing the Arg-Gly-Asp sequence and nitroxide radicals” (Bioorg Med Chem Lett, 1993).

Columns and labels:
[1] = biological target: Integrin alpha-IIb/beta-3 (Homo sapiens, UniProt P05106+P08514); experiment: Dissociation constant for platelet glycoprotein alphaIIb-beta3 integrin from human platelets
Homo sapiens = organism: Homo sapiens; experiment: Compound was evaluated for in vitro inhibition of ADP-induced aggregation of human platelet rich plasma; type: functional

Integrin alpha-IIb/beta-3, sequence (P05106 27-788 limits assumed): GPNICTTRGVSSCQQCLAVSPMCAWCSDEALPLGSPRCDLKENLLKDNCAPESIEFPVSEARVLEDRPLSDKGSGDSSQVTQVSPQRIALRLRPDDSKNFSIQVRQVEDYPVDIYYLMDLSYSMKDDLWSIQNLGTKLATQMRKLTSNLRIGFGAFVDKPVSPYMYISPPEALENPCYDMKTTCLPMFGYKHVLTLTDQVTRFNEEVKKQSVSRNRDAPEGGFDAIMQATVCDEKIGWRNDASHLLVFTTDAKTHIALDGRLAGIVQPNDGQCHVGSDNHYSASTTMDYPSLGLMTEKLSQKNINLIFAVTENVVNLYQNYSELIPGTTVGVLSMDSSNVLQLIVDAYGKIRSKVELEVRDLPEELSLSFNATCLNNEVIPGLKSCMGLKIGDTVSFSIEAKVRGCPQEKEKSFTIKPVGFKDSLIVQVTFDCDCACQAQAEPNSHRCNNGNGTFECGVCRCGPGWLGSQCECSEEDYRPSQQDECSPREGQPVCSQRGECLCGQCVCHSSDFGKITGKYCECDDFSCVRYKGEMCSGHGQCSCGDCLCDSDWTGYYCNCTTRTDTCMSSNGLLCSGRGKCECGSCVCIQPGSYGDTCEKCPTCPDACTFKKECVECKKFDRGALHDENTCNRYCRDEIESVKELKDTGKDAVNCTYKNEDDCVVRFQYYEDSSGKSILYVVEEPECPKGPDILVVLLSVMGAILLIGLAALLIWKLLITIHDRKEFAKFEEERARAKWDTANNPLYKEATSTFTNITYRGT
Integrin alpha-IIb/beta-3, sequence (P08514 32-887 limits assumed): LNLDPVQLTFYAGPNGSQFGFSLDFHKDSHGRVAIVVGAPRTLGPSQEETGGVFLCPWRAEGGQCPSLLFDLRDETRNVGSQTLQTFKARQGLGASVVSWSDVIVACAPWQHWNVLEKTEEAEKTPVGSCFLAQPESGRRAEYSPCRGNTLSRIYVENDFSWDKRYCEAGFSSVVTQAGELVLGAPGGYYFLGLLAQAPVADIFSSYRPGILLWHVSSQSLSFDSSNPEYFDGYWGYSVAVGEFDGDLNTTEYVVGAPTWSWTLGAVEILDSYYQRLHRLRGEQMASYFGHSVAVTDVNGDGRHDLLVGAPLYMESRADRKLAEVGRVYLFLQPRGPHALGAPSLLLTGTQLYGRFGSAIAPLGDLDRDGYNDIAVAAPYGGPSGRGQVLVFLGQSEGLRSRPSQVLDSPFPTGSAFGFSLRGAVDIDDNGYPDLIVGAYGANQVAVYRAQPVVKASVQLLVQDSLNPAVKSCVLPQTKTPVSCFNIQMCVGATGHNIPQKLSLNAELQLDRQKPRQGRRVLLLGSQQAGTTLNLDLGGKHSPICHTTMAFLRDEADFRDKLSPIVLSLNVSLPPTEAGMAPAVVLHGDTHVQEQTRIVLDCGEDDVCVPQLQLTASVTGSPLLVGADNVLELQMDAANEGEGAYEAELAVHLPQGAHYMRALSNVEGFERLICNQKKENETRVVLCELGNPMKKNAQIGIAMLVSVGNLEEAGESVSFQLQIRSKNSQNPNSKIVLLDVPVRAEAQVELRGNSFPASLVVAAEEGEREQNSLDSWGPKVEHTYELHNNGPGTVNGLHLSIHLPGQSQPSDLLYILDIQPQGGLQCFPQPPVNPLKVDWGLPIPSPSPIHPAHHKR
Integrin alpha-IIb/beta-3, sequence (P08514 891-1039 limits assumed): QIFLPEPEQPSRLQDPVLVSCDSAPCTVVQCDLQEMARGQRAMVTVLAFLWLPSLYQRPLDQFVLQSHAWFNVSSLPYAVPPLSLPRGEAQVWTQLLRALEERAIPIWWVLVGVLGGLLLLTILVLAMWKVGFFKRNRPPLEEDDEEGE

Structure (SMILES)	Ki [1] [µM]	IC50 (Homo sapiens) [µM]
CN(C(=O)c1ccccc1SCC(=O)NC1CC(C)(C)N([O])C(C)(C)C1)[C@@H](CCCN=C(N)N)C(=O)NCC(=O)N[C@@H](C(=O)O)C(=O)Nc1ccccc1SCC(=O)NC1CC(C)(C)N([O])C(C)(C)C1	0.11	1.02
CC1(C)CC(NC(=O)CBr)CC(C)(C)N1[O]	> 1000	> 200
